This note sets out measurements from patent US9878999B2, “Proteasome chymotrypsin-like inhibition using PI-1833 analogs” (H. Lee Moffitt Cancer Center and Research Institute, Inc., priority 2011, dated 2018).

Molecules are shown by their SMILES. Like-named read-outs stand apart in the source and are kept apart here.

The target of this assay is CT-L activity of purified 20S proteasome (Homo sapiens, UniProt P20618+P28074). In words: in vitro CT-L activity of purified 20S proteasome. In kind it is biochemical. Conditions: for fold loss of CT-L activity: compared to 1; for inhibition at 10 µM: read-out: % inhibition of CT-L @ 10 μM, @ 10 μM; for Chymotrypsin-like activity, % @ 10 μM: Table 2, @ 10 μM; for fold difference of CT-L potency between S- and R-enantiomer: 16c vs 16b, 16e vs 16f.

[1] abbreviates: Table 1, read-out: IC50 (μM) Chymotrypsin-like activity.
Where [2] appears, read: Table 2, read-out: IC50 (μM) Chymotrypsin-like activity.
The mark [3] stands for this setting: Table 3, read-out: IC50 (μM) CT-L.
The mark [4] stands for this setting: Table 10, read-out: IC50 (μM) CT-L.

As usually defined, the IC50 is the concentration needed to halve the response being measured. Regarding `Cc1ccc(-c2noc(CN(C(=O)COc3ccc(Cl)cc3)C(C)C)n2)cc1` [11e, 2-(4-Chlorophenoxy)-N-isopropyl-N-((3-p-tolyl-1,2,4-oxadiazol-5-yl)methyl)acetamide], the IC50 is 1.12 ± 0.33 µM under setting [1] and ~1 µM (read-out: IC50, in vitro CT-L).

As for `CC(C)N(Cc1nc(-c2ccc(C(F)(F)F)cc2)no1)C(=O)COc1ccc(Cl)cc1` [11f, 2-(4-Chlorophenoxy)-N-isopropyl-N-((3-(4-(trifluoromethyl)phenyl)-1,2,4-oxadiazol-5-yl)methyl)acetamide], the IC50 by setting is: under setting [1], 1.4 ± 0.185 µM; (read-out: IC50, in vitro CT-L) ~1 µM.

As for `CC(C)N(Cc1nc(-c2ccc(Cl)cc2)no1)C(=O)COc1ccc(Cl)cc1` [11g, 2-(4-Chlorophenoxy)-N-((3-(4-chlorophenyl)-1,2,4-oxadiazol-5-yl)methyl)-N-isopropylacetamide], the IC50 (read-out: IC50, in vitro CT-L) was 1.07 µM.

For the compound `CC(C)N(Cc1nc(-c2ccccc2)no1)C(=O)COc1ccc(Cl)cc1` [11h, 2-(4-Chlorophenoxy)-N-isopropyl-N-((3-phenyl-1,2,4-oxadiazol-5-yl)methyl)acetamide], the IC50 reads like this: under setting [1], 0.51 ± 0.16 µM; (read-out: IC50, in vitro CT-L) 0.3 to 0.5 µM.

Regarding `Cc1ccc(OCC(=O)N(Cc2nc(-c3ccc(Cl)cc3)no2)C(C)C)cc1` [11i, N-((3-(4-chlorophenyl)-1,2,4-oxadiazol-5-yl)methyl)-N-isopropyl-2-(p-tolyloxy)acetamide], the IC50 is 0.45 ± 0.15 µM under setting [1] and ~1 µM (read-out: IC50, in vitro CT-L).

Turning to `CC(C)N(Cc1nc(-c2ccccc2)no1)C(=O)COc1ccccc1` [11j, N-Isopropyl-2-phenoxy-N-((3-phenyl-1,2,4-oxadiazol-5-yl)methyl)acetamide], the “fold loss of CT-L activity” value was 10 fold. Further, the IC50 (read-out: IC50, in vitro CT-L) came out at 6.22 µM.

For the compound `Cc1ccc(-c2noc(CN(C(=O)COc3ccccc3)C(C)C)n2)cc1` [11k, N-Isopropyl-2-phenoxy-N-((3-p-tolyl-1,2,4-oxadiazol-5-yl)methyl)acetamide], the “fold loss of CT-L activity” value was 13 fold. Moreover, under setting [1], the IC50 came to 8.47 ± 0.59 µM. Where the note is “read-out: IC50, in vitro CT-L”, the IC50 came out at 8.4 µM.

On to `CC(C)N(Cc1nc(-c2ccc(C(F)(F)F)cc2)no1)C(=O)COc1ccccc1` [11l, N-Isopropyl-2-phenoxy-N-((3-(4-(trifluoromethyl)phenyl)-1,2,4-oxadiazol-5-yl)methyl)acetamide], for which the “fold loss of CT-L activity” value came to 25 fold. Also, the IC50 under setting [1] came out at 15.1 ± 6.94 µM. Besides, the IC50 (read-out: IC50, in vitro CT-L) came to 15 µM.

As for `Cc1ccc(OCC(=O)N(Cc2nc(-c3ccccc3)no2)C(C)C)cc1` [11m, N-isopropyl-N-((3-phenyl-1,2,4-oxadiazol-5-yl)methyl)-2-(p-tolyloxy)acetamide], the IC50 is, setting by setting: under setting [1], 0.31 ± 0.08 µM; (read-out: IC50, in vitro CT-L) 0.3 to 0.5 µM.

On to `Cc1ccc(OCC(=O)N(Cc2nc(-c3ccc(C(F)(F)F)cc3)no2)C(C)C)cc1` [11n, N-Isopropyl-2-(p-tolyloxy)-N-((3-(4-(trifluoromethyl)phenyl)-1,2,4-oxadiazol-5-yl)methyl)acetamide], for which the half-maximal inhibitory concentration (IC50) reads like this: under setting [1], 0.97 ± 0.15 µM; (read-out: IC50, in vitro CT-L) ~1 µM.

On to `Cc1cccc(OCC(=O)N(Cc2nc(-c3ccccc3)no2)C(C)C)c1` [11o, N-isopropyl-N-((3-phenyl-1,2,4-oxadiazol-5-yl)methyl)-2-(m-tolyloxy)acetamide], for which the “CT-L inhibitory activity, in words” value was “loss of in vitro activity”. Moreover, under setting [1], the IC50 was > 10 µM.

For `Cc1ccccc1OCC(=O)N(Cc1nc(-c2ccccc2)no1)C(C)C` [11p, N-Isopropyl-N-((3-phenyl-1,2,4-oxadiazol-5-yl)methyl)-2-(o-tolyloxy)acetamide], the “CT-L inhibitory activity, in words” value is “loss of in vitro activity”. In addition, the IC50 under setting [1] was > 10 µM.

One may read the inhibition as how much of the control response was suppressed. Regarding `CC(C)N(Cc1nc(-c2ccccc2)no1)C(=O)COc1ccc(-c2ccccc2)cc1` [11q, 2-(Biphenyl-4-yloxy)-N-isopropyl-N-((3-phenyl-1,2,4-oxadiazol-5-yl)methyl)acetamide], the inhibition at 10 µM was < 70%. Under setting [1], the IC50 was > 10 µM.

`CC(C)N(Cc1nc(-c2ccccc2)no1)C(=O)COc1ccc2cc(Br)ccc2c1` [11r, 2-(6-Bromonaphthalen-2-yloxy)-N-isopropyl-N-((3-phenyl-1,2,4-oxadiazol-5-yl)methyl)acetamide]: the inhibition at 10 µM was < 70%. The IC50 under setting [1] is > 10 µM.

Regarding `CC(C)N(Cc1nc(-c2ccccc2)no1)C(=O)COc1ccc(F)cc1` [11s, 2-(4-Fluorophenoxy)-N-isopropyl-N-((3-phenyl-1,2,4-oxadiazol-5-yl)methyl)acetamide], the “CT-L inhibitory activity, in words” value is given as “poor CT-L inhibitory activity”. Besides, the IC50 under setting [1] was found to be 8.73 ± 3.05 µM. For the same compound, for the setting “compared to 11b”, the “fold loss of CT-L inhibitory activity” value is 20 fold.

For the compound `CC(C)N(Cc1nc(-c2cccnc2)no1)C(=O)COc1ccc(O)cc1` [11u], the IC50 runs as follows: under setting [1], 0.98 ± 0.5 µM; (read-out: IC50, in vitro CT-L) ~1 µM.

Regarding `CC(C)N(Cc1nc(-c2ccccc2)no1)C(=O)COc1ccc(O)cc1` [11v, 2-(4-hydroxyphenoxy)-N-isopropyl-N-((3-phenyl-1,2,4-oxadiazol-5-yl)methyl)acetamide], the IC50 reads like this: under setting [1], 10.1 ± 4.52 µM; (read-out: IC50, in vitro CT-L) 10 µM.

For the compound `Cc1ccc(OCC(=O)N(Cc2nc(-c3ccccn3)no2)C(C)C)cc1` [11w, N-Isopropyl-N-((3-(pyridin-2-yl)-1,2,4-oxadizaol-5-yl)methyl)-2-(p-tolyloxy)acetamide], the IC50 is, setting by setting: under setting [1], 3.75 ± 1.47 µM; (read-out: IC50, in vitro CT-L) 3.74 ± 1.47 µM.

On to `Cc1ccc(OCC(=O)N(Cc2nc(-c3cccnc3)no2)C(C)C)cc1` [11x, N-isopropyl-N-((3-(pyridin-3-yl)-1,2,4-oxadiazol-5-yl)methyl)-2-(p-tolyloxy)acetamide], for which the “fold improved CT-L activity” value (compared to the hit 1 (PI-1833)) was 2.5 fold. For the same compound, where the note is “read-out: IC50, in vitro CT-L”, the IC50 amounted to 0.239 ± 0.09 µM.

As to `Cc1ccc(OCC(=O)N(Cc2nc(-c3ccncc3)no2)C(C)C)cc1` [11y, N-Isopropyl-N-((3-(pyridin-4-yl)-1,2,4-oxadizaol-5-yl)methyl)-2-(p-tolyloxy)acetamide], the IC50 (read-out: IC50, in vitro CT-L) worked out at 0.37 ± 0.04 µM.

For the compound `Cc1ccc(OCC(=O)N(Cc2nc(-c3ccccc3)no2)C(C)C)cn1` [11z, N-Isopropyl-2-(60methylpyridin-3-yloxy)-N-((3-phenyl-1,2,4-oxadiazol-5-yl)methyl)acetamide], the “CT-L inhibitory activity, in words” value is on record as “failed to retain the activity”. Moreover, the IC50 under setting [1] is 4 ± 0.89 µM.

Consider `Cc1ccc(OCC(=O)N(Cc2nc(-c3ccc(C)cc3)no2)CC(C)C)cc1` [12a, N-Isobutyl-N-((3-p-tolyl-1,2,4-oxadiazol-5-yl)methyl)-2-(p-tolyloxy)acetamide], for which the “fold loss of CT-L activity” value was 3 fold. For the same compound, the IC50 (read-out: IC50, in vitro CT-L) was found to be 2.37 µM.

For the compound `CCN(Cc1nc(-c2ccc(C)cc2)no1)C(=O)COc1ccc(C)cc1` [12b, N-Ethyl-N-((3-p-tolyl-1,2,4-oxadiazol-5-yl)methyl)-2-(p-tolyloxy)acetamide], the “fold loss of CT-L activity” value stood at 14 fold. In addition, the IC50 under setting [2] amounted to 8.98 ± 5.21 µM. For the same compound, the IC50 (read-out: IC50, in vitro CT-L) came out at 8.8 µM.

`Cc1ccc(OCC(=O)N(C)Cc2nc(-c3ccc(C)cc3)no2)cc1` [12c, N-Methyl-N-((3-p-tolyl-1,2,4-oxadiazol-5-yl)methyl)-2-(p-tolyloxy)acetamide]: the 50% inhibitory concentration (IC50) under setting [2] worked out at 29.9 ± 3.9 µM.

In the case of `Cc1ccc(OCC(=O)NCc2nc(-c3ccc(C)cc3)no2)cc1` [12d, N-((3-p-tolyl-1,2,4-oxadiazol-5-yl)methyl)-2-(p-tolyloxy)acetamide], the “Chymotrypsin-like activity, % @ 10 μM” value is −62% @10 μM.

For `Cc1ccc(OCC(=O)N(Cc2nc(-c3ccc(C)cc3)no2)C(C)(C)C)cc1` [12e], the “Chymotrypsin-like activity, % @ 10 μM” value is −108.42 ± 118.76%.

For `Cc1ccc(OCC(=O)N(Cc2nc(-c3ccc(C)cc3)no2)C2CC2)cc1` [12f, N-Cyclopropyl-N-((3-p-tolyl-1,2,4-oxadiazol-5-yl)methyl)-2-(p-tolyloxy)acetamide], the “Chymotrypsin-like activity, % @ 10 μM” value was −8.36 ± 19.03%.

As to `Cc1ccc(O[C@@H](C)C(=O)N(Cc2nc(-c3cccnc3)no2)C(C)C)cc1` [16b, (S)—N-Isopropyl-N-((3-(pyridine-3-yl)-1,2,4-oxadiazol-5-yl)methyl)-2-(p-tolyloxy)propanamide], the concentration for half-maximal inhibition (IC50) (read-out: IC50, in vitro CT-L) was found to be 0.214 µM.

On to `Cc1ccc(O[C@H](C)C(=O)N(Cc2nc(-c3cccnc3)no2)C(C)C)cc1` [16c, (R)—N-Isopropyl-N-((3-(pyridine-3-yl)-1,2,4-oxadiazol-5-yl)methyl)-2-(p-tolyloxy)propanamide], for which the “fold difference of CT-L potency between S- and R-enantiomer” value is on record as 35 fold. Further, the IC50 under setting [3] was 7.52 ± 2.13 µM.

On to `CCCc1ccc(O[C@@H](C)C(=O)N(Cc2nc(-c3cccnc3)no2)C(C)C)cc1` [16e, (S)—N-Isopropyl-2-(4-propylphenoxy)-N-((3-(pyridine-3-yl)-1,2,4-oxadiazol-5-yl)methyl)propanamide], for which the “fold difference of CT-L potency between S- and R-enantiomer” value is on record as 40 fold. Under setting [3], the IC50 turned out to be 0.075 µM.

Take `Cc1ccc(OCC(=O)N(Cc2nc(-c3ccc(C)cc3)no2)C(C)C)cc1` [PI-1833 (23)]: the IC50 (Table 4, read-out: IC50 (μM) Chymotrypsin-like activity) was found to be 0.716 ± 0.27 µM.

Consider `Cc1ccc(CNC(=O)N(Cc2nc(-c3ccccc3)no2)C(C)C)cc1` [SO2-024, 1-Isopropyl-3-(4-methylbenzyl)-1-((3-phenyl-1,2,4-oxadiazol-5-yl)methyl)urea], for which the IC50 by setting is: under setting [4], > 10 µM; (read-out: IC50, in vitro CT-L) > 10 µM.

Take `CC(C)N(Cc1nc(-c2ccccc2)no1)C(=O)CCc1ccc(C(F)(F)F)cc1` [SO2-027, N-Isopropyl-N-((3-phenyl-1,2,4-oxadiazol-5-yl)methyl)-3-(4-(trifluoromethyl)phenyl)propanamide]: the half-inhibitory concentration (IC50) under setting [4] was found to be 15.7 µM and the 50% inhibitory concentration (IC50) (read-out: IC50, in vitro CT-L) worked out at 15 µM.

Consider `Cc1ccc(NCC(=O)N(Cc2nc(-c3ccccc3)no2)C(C)C)cc1` [SO2-090, N-Isopropyl-N-((3-phenyl-1,2,4-oxadiazol-5-yl)methyl)-2-(p-tolylamino)acetamide], for which the IC50 (read-out: IC50, in vitro CT-L) turned out to be 5.67 µM.

Turning to `Cc1ccc(OCC(=O)N(CCc2nc(-c3ccccc3)no2)C(C)C)cc1` [SO2-091, N-Isopropyl-N-(2-(3-phenyl-1,2,4-oxadiazol-5-yl)ethyl)-2-(p-tolyloxy)acetamide], the inhibition at 10 µM was determined as 31%.
